Experimental data published in PMC10447463, “Data-mining unveils structure–property–activity correlation of viral infectivity enhancing self-assembling peptides” (Nature Communications, 2023).
Like-named read-outs stand apart in the source and are kept apart here.

What was measured:
[1] = format: physicochemical; conditions: for ThT Cat. / ThT-Fluorescence (categorical): ThT-active if fluorescence at least twice the control
Method in brief: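 Preformed peptide fibrils (1 mg/mL) mixed with 50 µM ThT in PBS, 15 min at RT, fluorescence ex 440/em 488 nm versus PBS blank, triplicates. Zeta potential: peptides at 1 mg/mL in PBS pH 7.4, aged 1 d at RT, diluted in 1 mM KCl, Smoluchowski from electrophoretic mobility.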

[2] = Turbidity, derived count rate of scattered light; format: physicochemical; conditions: for Count Rate / kcps: derived count rate of scattered light at 633 nm, 173°, from zeta-potential measurement, 0.1 mg/mL in 1 mM KCl after 1 d at 1 mg/mL in PBS, turbidity / microscopic aggregation, mean of triplicate
Method in brief: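 Samples: 1 mg/mL in PBS pH 7.4 (from DMSO), 1 d at RT, then diluted in 1 mM KCl immediately before measurement. Triplicates, two independent runs averaged.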

[3] = Log10 of derived count rate of scattered light (turbidity)
[4] = logarithm of count rate in kcps
[5] = turbidity, Log10 of derived count rate of scattered light, Figure 3A source data
[6] = turbidity, log10 of derived count rate of scattered light
[7] = ThT fluorescence category, 1 if Rel. ThT >2

| Substance | Tht category (> 2 to blank = +) ([1]; Fig S10 panel D) | ThT Cat. ([1]; Fig S10 panel E) | ThT Cat, ([1]; ThT category, 1 if Rel. ThT >2) | ThT Cat. ([1]; ThT category, 1 if Rel. ThT >2) | ThT Cat. / ThT-Fluorescence (categorical) [1] | Log10 Count Rate [2, 3] | Count Rate / kcps [2] | Log10 Count Rate [2, 5] | Log10 Count Rate [2, 6] | Tht category (> 2 to blank = +) ([1]; FigS12 panel A) | ThT Cat, ([1]; FigS12 panel B) | ThT Cat. [1, 7] | also measured |
| --- | --- | --- | --- | --- | --- | --- | --- | --- | --- | --- | --- | --- | --- |
| CKFKFQF | 1 (ThT. Cat is 1, if Rel. ThT >2) | 1 (ThT. Cat is 1, if Rel. ThT >2) | 1 (ThT. Cat is 1, if Rel. ThT >2) | 1 (ThT. Cat is 1, if Rel. ThT >2) | 1 (ThT. Cat is 1, if Rel. ThT >2) | 3.725 | 5303 kcps | 3.725 | 3.725 | – | – | – | Count Rate ([2]; T0, mean of n = 3): 719.1 kcps; Count Rate ([2]; T0, replicate 2): 718.1 kcps; Count Rate ([2]; T0, replicate 3): 875.1 kcps; Count Rate ([2]; T2m, mean of n = 3): 801.2 kcps; Count Rate ([2]; T2m, replicate 1): 2097 kcps; Count Rate ([2]; T2m, replicate 2): 115.2 kcps; Count Rate ([2]; T2m, replicate 3): 191.5 kcps; Count Rate ([2]; T1d, mean of n = 3): 1387.9 kcps; Count Rate ([2]; T1d, replicate 1): 43.1 kcps; Count Rate ([2]; T1d, replicate 2): 2192.2 kcps; Count Rate ([2]; T1d, replicate 3): 1928.4 kcps; Log10 Count Rate [2, 4]: 3.725 |
| RGDKIRGDKI | 0 (ThT-inactive (N-Fold <2)) | 0 (ThT-inactive (N-Fold <2)) | 0 (ThT-inactive (N-Fold <2)) | 0 (ThT-inactive (N-Fold <2)) | 0 (ThT-inactive (N-Fold <2)) | 2.456 | 286 kcps | 2.456 | 2.456 | 0 (ThT-inactive (N-Fold <2)) | 0 (ThT-inactive (N-Fold <2)) | – | – |
| QCKIKIQI | 1 (ThT. Cat is 1, if Rel. ThT >2) | – | 1 (ThT. Cat is 1, if Rel. ThT >2) | 1 (ThT. Cat is 1, if Rel. ThT >2) | 1 (ThT. Cat is 1, if Rel. ThT >2) | 4.094 | 12427 kcps | 4.094 | 4.094 | – | – | – | – |
| NMWQKAKAQA | 1 (ThT. Cat is 1, if Rel. ThT >2) | – | 1 (ThT. Cat is 1, if Rel. ThT >2) | 1 (ThT. Cat is 1, if Rel. ThT >2) | 1 (ThT. Cat is 1, if Rel. ThT >2) | 2.384 | 242 kcps | 2.384 | 2.384 | 1 (ThT. Cat is 1, if Rel. ThT >2) | 1 (ThT. Cat is 1, if Rel. ThT >2) | – | – |
| KIKIQI | 0 (ThT-inactive (N-Fold <2)) | 0 (ThT-inactive (N-Fold <2)) | 0 (ThT-inactive (N-Fold <2)) | – | 0 (ThT-inactive (N-Fold <2)) | 2.035 | 108 kcps | 2.035 | 2.035 | 0 (ThT-inactive (N-Fold <2)) | 0 (ThT-inactive (N-Fold <2)) | 0 (ThT-inactive (N-Fold <2)) | – |
| KYKYQY | 1 (ThT. Cat is 1, if Rel. ThT >2) | – | 1 (ThT. Cat is 1, if Rel. ThT >2) | – | 1 (ThT. Cat is 1, if Rel. ThT >2) | 1.499 | 32 kcps | 1.499 | – | 1 (ThT. Cat is 1, if Rel. ThT >2) | 1 (ThT. Cat is 1, if Rel. ThT >2) | 1 (ThT. Cat is 1, if Rel. ThT >2) | Log10 Count Rate ([2]; log10 of derived count rate of scattered light (turbidity)): 1.499 |
| KIKIQINAWQ | 1 (ThT. Cat is 1, if Rel. ThT >2) | – | 1 (ThT. Cat is 1, if Rel. ThT >2) | – | 1 (ThT. Cat is 1, if Rel. ThT >2) | 3.174 | 1494 kcps | 3.174 | 3.174 | – | – | 1 (ThT. Cat is 1, if Rel. ThT >2) | – |
| KIKQIIN | 0 (ThT-inactive (N-Fold <2)) | – | 0 (ThT-inactive (N-Fold <2)) | – | 0 (ThT-inactive (N-Fold <2)) | 1.806 | 64 kcps | 1.806 | 1.806 | 0 (ThT-inactive (N-Fold <2)) | 0 (ThT-inactive (N-Fold <2)) | 0 (ThT-inactive (N-Fold <2)) | Log10 Count Rate [2, 4]: 1.806 |
| HGDKCHGDKC | 0 (ThT-inactive (N-Fold <2)) | 0 (ThT-inactive (N-Fold <2)) | 0 (ThT-inactive (N-Fold <2)) | 0 (ThT-inactive (N-Fold <2)) | 0 (ThT-inactive (N-Fold <2)) | 1.095 | 12 kcps | 1.095 | 1.095 | 0 (ThT-inactive (N-Fold <2)) | 0 (ThT-inactive (N-Fold <2)) | – | – |
| KNERIKNERI | 0 (ThT-inactive (N-Fold <2)) | 0 (ThT-inactive (N-Fold <2)) | 0 (ThT-inactive (N-Fold <2)) | 0 (ThT-inactive (N-Fold <2)) | 0 (ThT-inactive (N-Fold <2)) | 2.508 | 322 kcps | 2.508 | 2.508 | 0 (ThT-inactive (N-Fold <2)) | 0 (ThT-inactive (N-Fold <2)) | – | – |
| KIKIQINM | 0 (ThT-inactive (N-Fold <2)) | 0 (ThT-inactive (N-Fold <2)) | 0 (ThT-inactive (N-Fold <2)) | – | 0 (ThT-inactive (N-Fold <2)) | 2.418 | 262 kcps | 2.418 | 2.418 | – | – | 0 (ThT-inactive (N-Fold <2)) | – |
| CKFKFQFNM | 1 (ThT. Cat is 1, if Rel. ThT >2) | 1 (ThT. Cat is 1, if Rel. ThT >2) | 1 (ThT. Cat is 1, if Rel. ThT >2) | 1 (ThT. Cat is 1, if Rel. ThT >2) | 1 (ThT. Cat is 1, if Rel. ThT >2) | 3.347 | 2224 kcps | 3.347 | 3.347 | – | – | – | Log10 Count Rate [2, 4]: 3.347 |
| CEIEIQI | 1 (ThT. Cat is 1, if Rel. ThT >2) | 1 (ThT. Cat is 1, if Rel. ThT >2) | 1 (ThT. Cat is 1, if Rel. ThT >2) | 1 (ThT. Cat is 1, if Rel. ThT >2) | 1 (ThT. Cat is 1, if Rel. ThT >2) | 1.716 | 52 kcps | 1.716 | 1.716 | 1 (ThT. Cat is 1, if Rel. ThT >2) | 1 (ThT. Cat is 1, if Rel. ThT >2) | – | – |
| HGEHGEHGE | 0 (ThT-inactive (N-Fold <2)) | 0 (ThT-inactive (N-Fold <2)) | 0 (ThT-inactive (N-Fold <2)) | 0 (ThT-inactive (N-Fold <2)) | 0 (ThT-inactive (N-Fold <2)) | 2.532 | 340 kcps | 2.532 | 2.532 | 0 (ThT-inactive (N-Fold <2)) | 0 (ThT-inactive (N-Fold <2)) | – | – |
| KVKGVGK | 0 (ThT-inactive (N-Fold <2)) | – | 0 (ThT-inactive (N-Fold <2)) | 0 (ThT-inactive (N-Fold <2)) | 0 (ThT-inactive (N-Fold <2)) | 1.709 | 51 kcps | 1.709 | 1.709 | 0 (ThT-inactive (N-Fold <2)) | 0 (ThT-inactive (N-Fold <2)) | – | – |
| RGEKIKIQINM | 1 (ThT. Cat is 1, if Rel. ThT >2) | 1 (ThT. Cat is 1, if Rel. ThT >2) | 1 (ThT. Cat is 1, if Rel. ThT >2) | 1 (ThT. Cat is 1, if Rel. ThT >2) | 1 (ThT. Cat is 1, if Rel. ThT >2) | 2.774 | 595 kcps | 2.774 | 2.774 | – | – | – | – |
| KAKQAANMWQ | 0 (ThT-inactive (N-Fold <2)) | – | 0 (ThT-inactive (N-Fold <2)) | 0 (ThT-inactive (N-Fold <2)) | 0 (ThT-inactive (N-Fold <2)) | 2.839 | 690 kcps | 2.839 | 2.839 | 0 (ThT-inactive (N-Fold <2)) | 0 (ThT-inactive (N-Fold <2)) | – | – |
| KIKIKIKIYYYY | 0 (ThT-inactive (N-Fold <2)) | – | 0 (ThT-inactive (N-Fold <2)) | – | 0 (ThT-inactive (N-Fold <2)) | 3.996 | 9918 kcps | 3.996 | 3.996 | – | – | 0 (ThT-inactive (N-Fold <2)) | Zeta Count Rate ([2]; peptides with TEM 2cat 0): 9918 kcp |
